Consider 49 compounds from US11578079B2, “SUMO inhibitor compounds and uses thereof” (CITY OF HOPE, priority 2018, dated 2023).

The structures appear in SMILES notation.

The assay addresses T1, SUMO (Homo sapiens, UniProt Q9UBT2).
T1 sequence (Q9UBT2 1-640): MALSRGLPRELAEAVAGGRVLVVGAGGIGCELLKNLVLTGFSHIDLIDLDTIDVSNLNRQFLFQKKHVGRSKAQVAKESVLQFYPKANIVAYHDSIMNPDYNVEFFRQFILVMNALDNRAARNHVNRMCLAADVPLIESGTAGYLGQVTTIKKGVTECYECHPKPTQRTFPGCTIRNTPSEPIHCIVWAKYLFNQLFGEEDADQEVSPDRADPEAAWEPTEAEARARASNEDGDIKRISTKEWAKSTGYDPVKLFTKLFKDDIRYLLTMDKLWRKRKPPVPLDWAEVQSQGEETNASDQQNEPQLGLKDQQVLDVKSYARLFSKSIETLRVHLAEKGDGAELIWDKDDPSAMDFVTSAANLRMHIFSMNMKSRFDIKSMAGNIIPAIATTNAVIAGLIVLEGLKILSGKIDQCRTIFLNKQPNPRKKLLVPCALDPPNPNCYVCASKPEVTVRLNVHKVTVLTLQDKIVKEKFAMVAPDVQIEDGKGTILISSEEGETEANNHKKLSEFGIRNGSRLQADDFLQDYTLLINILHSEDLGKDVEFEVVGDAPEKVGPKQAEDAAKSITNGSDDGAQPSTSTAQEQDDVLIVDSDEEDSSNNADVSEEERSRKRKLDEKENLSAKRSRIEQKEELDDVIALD
T1 sequence (Q9UBE0 1-346 partner): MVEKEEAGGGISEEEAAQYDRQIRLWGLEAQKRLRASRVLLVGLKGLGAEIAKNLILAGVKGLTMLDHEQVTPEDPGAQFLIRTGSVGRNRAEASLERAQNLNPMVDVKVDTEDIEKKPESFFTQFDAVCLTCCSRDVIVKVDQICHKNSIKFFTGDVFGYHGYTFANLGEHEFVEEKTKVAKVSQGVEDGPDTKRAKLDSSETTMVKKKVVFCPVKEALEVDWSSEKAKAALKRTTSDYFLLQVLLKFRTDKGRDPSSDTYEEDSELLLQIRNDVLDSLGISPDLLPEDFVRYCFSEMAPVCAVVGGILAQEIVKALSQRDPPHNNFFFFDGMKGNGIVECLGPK
In words: SUMO activity (Table I, biological activities). The assay is classed as biochemical. On the set-up: key: + (less active); ++ (active); +++ (most active).
For `CCOc1cccc(NC(Cc2ccccc2)C23C=CC(O2)C(C(=O)NC)=C3C(=O)OC)c1` (stereo not shown) [Compound 250], the SUMO entry was “++”.
As to `COC(=O)C1=C(C(=O)OC)C2(C(Cc3ccc(NC(C)C)cc3)Nc3ccccc3)C=CC1O2` (stereo not shown) [Compound 684], the SUMO entry was “+”.
`COC(=O)C1=C(C(=O)OC)C2(C(Cc3ccc(OC(C)C)cc3)Nc3ccccc3)C=CC1O2` (stereo not shown) [Compound 650]: the SUMO result was “++”.
For `COC(=O)C1=C(C(N)=O)C2C=CC1(C(Cc1ccccc1)Nc1cc(F)cc(F)c1)O2` (stereo not shown) [Compound 207] the value was “+”.
`COC(=O)C1=C(C(=O)OC)C2(C(Cc3ccccc3)Nc3c(F)cccc3F)C=CC1O2` (stereo not shown) [Compound 228]: the SUMO entry is on record as “++”.
Turning to `COC(=O)C1=C(C(=O)OC)C2(C(Cc3ccccc3Br)Nc3ccccc3)C=CC1O2` (stereo not shown) [Compound 667], the SUMO entry was “++”.
The entry for `COC(=O)C1=C(C(=O)OC)C2(C(Cc3ccccc3Cl)N[S@+]([O-])C(C)(C)C)CCC1O2` (stereo partly shown) [Compound 694] is “++”; for `COC(=O)C1=C(C(=O)NC2CCOCC2)C2C=CC1(C(Cc1ccccc1)Nc1ccccc1)O2` (stereo not shown) [Compound 275] it is “+++”.
For the compound `COC(=O)C1=C(C(=O)Nc2ccc(OC)nc2)C2C=CC1(C(Cc1ccccc1)Nc1ccccc1)O2` (stereo not shown) [Compound 199], the SUMO result is listed as “++”.
With `CCCNC(=O)C1=C(C(=O)NCCC)C2(C(Cc3ccccc3)Nc3ccccc3)C=CC1O2` (stereo not shown) [Compound 157], the SUMO result is “+”.
The entry for `COC(=O)C1=C(C(=O)NCCN(C)C)C2C=CC1(C(Cc1ccccc1Cl)Nc1ccc(F)cc1)O2` (stereo not shown) [Compound 688] is “+++”; for `COC(=O)C1=C(C(=O)Nc2ccncc2)C2C=CC1(C(Cc1ccccc1)Nc1cc(F)cc(F)c1)O2` (stereo not shown) [Compound 206] it is “+”.
Turning to `COC(=O)C1=C(C(=O)OC)C2(C(Cc3ccc(OC(F)(F)F)cc3)Nc3ccccc3)C=CC1O2` (stereo not shown) [Compound 647], the SUMO entry is recorded as “++”.
Consider `COC(=O)C1=C(C(=O)OC)C2(C(Cc3ccccc3Cl)Nc3ccc(Oc4ccccc4)cc3)C=CC1O2` (stereo not shown) [Compound 678], for which the SUMO entry was “+”.
For `CCCCC(Nc1cc(F)cc(F)c1)C12C=CC(O1)C(C(=O)NCCN(CC)CC)=C2C(=O)OC` (stereo not shown) [Compound 398], the SUMO entry is listed as “+”.
In the case of `COC(=O)C1=C(C(=O)OC)C2(C(Cc3ccccc3Cl)Nc3cccc(Oc4ccccc4)c3)C=CC1O2` (stereo not shown) [Compound 672], the SUMO entry is given as “++”.
In the case of `CCc1ccc(CC(Nc2ccccc2)C23C=CC(O2)C(C(=O)OC)=C3C(=O)OC)cc1` (stereo not shown) [Compound 655], the SUMO result was “++”.
For `COC(=O)C1=C(C(=O)OC)C2(C(Cc3cccc(Cl)c3)Nc3ccccc3)C=CC1O2` (stereo not shown) [Compound 663] the value was “++”.
`COC(=O)C1=C(C(=O)Nc2ccc(C)c(F)c2)C2CCC1(C(Cc1ccccc1Cl)Nc1ccccc1)O2` (stereo not shown) [Compound 692]: the SUMO result is “+”.
Consider `COC(=O)C1=C(C(=O)OC)C2(C(Cc3ccccc3)Nc3ccc(F)cc3)C=CC1O2` (stereo not shown) [Compound 273], for which the SUMO result is “++”.
The entry for `C#CCNC(=O)C1=C(C(=O)OC)C2(C(Cc3ccccc3)Nc3ccccc3)C=CC1O2` (stereo not shown) [Compound 155] is “++”.
For `COC(=O)C1=C(C(=O)NCCN2CCOCC2)C2C=CC1(C(Cc1ccccc1)Nc1ccccc1)O2` (stereo not shown) [Compound 222] the value was “+++”; for `COC(=O)C1=C(C(=O)OC)C2(C(Nc3ccccc3)c3ccc4nc(Cl)ccc4c3)C=CC1O2` (stereo not shown) [Compound 675], “++”.
Take `COC(=O)C1=C(C(=O)OC)C2(C(Cc3ccc(-c4cc[nH]n4)cc3)Nc3ccccc3)C=CC1O2` (stereo not shown) [Compound 698]: the SUMO entry is listed as “+++”.
With `CCOC(=O)C1=C(C(=O)OCC)C2(C(Cc3ccccc3)Nc3ccccc3)C=CC1O2` (stereo not shown) [Compound 232], the SUMO entry is given as “+++”.
For `NC(=O)C1=C(C(N)=O)C2(C(Cc3ccccc3)Nc3ccccc3)C=CC1O2` (stereo not shown) [Compound 202] the value was “+”; for `COC(=O)C1=C(C(=O)OC)C2(C(Cc3cccc(OC)c3)Nc3ccccc3)C=CC1O2` (stereo not shown) [Compound 636], “+++”.
For `CCCCC(Nc1ccccc1)C12C=CC(O1)C(C(=O)OC)=C2C(=O)OC` (stereo not shown) [Compound 210] the value was “+++”; for `COC(=O)C1=C(C(=O)Nc2ccc(C)c(F)c2)C2C=CC1(C(Cc1ccccc1)Oc1cccnc1)O2` (stereo not shown) [Compound 484], “+”; for `COC(=O)C1=C(C(=O)OC)C2(C(Nc3ccccc3)C3CCOCC3)C=CC1O2` (stereo not shown) [Compound 192], “++”.
For `COC(=O)C1=C(C(=O)OC)C2(C(Cc3ccc(Cl)nc3)Nc3ccccc3)C=CC1O2` (stereo not shown) [Compound 649], the SUMO result is on record as “++”.
The entry for `COC(=O)C1=C(C(=O)NCCNC(=O)OC(C)(C)C)C2C=CC1(C(Cc1ccccc1)Nc1ccc(F)cc1)O2` (stereo not shown) [Compound 539] is “++”.
As to `COC(=O)C1=C(C(=O)OC)C2(C(Oc3ccccc3)c3ccc(CN4CCOCC4)cc3)C=CC1O2` (stereo not shown) [Compound 495], the SUMO entry was “++”.
For `COC(=O)C1=C(C(=O)OC)C2(C(Cc3ccc(CC4CCOCC4)cc3)Nc3ccccc3)C=CC1O2` (stereo not shown) [Compound 676], the SUMO entry is on record as “++”.
Turning to `CCOC(=O)C1=C(C(=O)OCC)C2(C(Cc3ccccc3)Nc3cc(F)cc(F)c3)C=CC1O2` (stereo not shown) [Compound 234], the SUMO result is “++”.
For `COC(=O)C1=C(C(=O)OC)C2(C(Cc3ccc(C#N)cc3)Nc3ccccc3)C=CC1O2` (stereo not shown) [Compound 643], the SUMO result was “++”.
On to `COC(=O)C1=C(C(=O)OC)C2(C(Cc3ccccc3)N(C)c3c(F)cccc3F)C=CC1O2` (stereo not shown) [Compound 237], for which the SUMO result is recorded as “+”.
The entry for `COC(=O)C1=C(C(=O)OC)C2(C(Cc3ccccc3)Nc3ccccc3F)C=CC1O2` (stereo not shown) [Compound 270] is “++”; for `CCNC(=O)C1=C(C(=O)NCC)C2(C(Cc3ccccc3Cl)Nc3ccccc3)C=CC1O2` (stereo not shown) [Compound 662] it is “+”.
`COC(=O)C1=C(C(=O)NC(C)C)C2C=CC1(C(Cc1ccccc1)Nc1ccccc1)O2` (stereo not shown) [Compound 153]: the SUMO entry is “++”.
The entry for `CCCNC(=O)C1=C(C(=O)OC)C2(C(Cc3ccccc3)Nc3ccccc3)C=CC1O2` (stereo not shown) [Compound 150] is “++”; for `COC(=O)C1=C(C(=O)OC)C2(C(Cc3ccc(CC(C)C)cc3)Nc3ccccc3)C=CC1O2` (stereo not shown) [Compound 656] it is “++”; for `COC(=O)C1=C(C(=O)OC)C2(C(Cc3ccccc3C#N)Nc3ccccc3)C=CC1O2` (stereo not shown) [Compound 660] it is “++”.
On to `COC(=O)C1=C(C(=O)OC)C2(C(Cc3ccccc3C(F)(F)F)Nc3ccccc3)C=CC1O2` (stereo not shown) [Compound 658], for which the SUMO entry was “++”.
As to `CCOc1cccc(NC(Cc2ccccc2)C23C=CC(O2)C(C(=O)O)=C3C(=O)OC)c1` (stereo not shown) [Compound 246], the SUMO entry is “+”.
For `COC(=O)C1=C(C(=O)OC)C2(C(Cc3ccc(CCO)cc3)Nc3ccccc3)C=CC1O2` (stereo not shown) [Compound 664] the value was “++”.
Take `COC(=O)C1=C(C(=O)OC)C2(C(Cc3ccc(F)cc3)Nc3cc(F)cc(Cl)c3)C=CC1O2` (stereo not shown) [Compound 451]: the SUMO result is “+++”.
The entry for `COC(=O)C1=C(C(=O)Nc2ccc(N3CCN(C)CC3)cc2)C2C=CC1(C(Cc1ccccc1)Nc1ccccc1)O2` (stereo not shown) [Compound 291] is “++”; for `COC(=O)C1=C(C(=O)N(C)C)C2C=CC1(C(Cc1ccccc1)Nc1ccccc1)O2` (stereo not shown) [Compound 154] it is “+”.
